Source: PubChem BioAssay (NCI)
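Cultured in 96-well plates, cells were exposed to test compound for 48 hours across five concentrations. Definition used: TGI = concentration required for complete inhibition of growth.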

What was measured:
Test in all cases: NCI-60 cell line screen, 48 h
NCI/ADR-RES ovarian = test system: NCI/ADR-RES ovarian
MDA-N = test system: MDA-N
SW-620 colon = test system: SW-620 colon
SK-OV-3 ovarian = test system: SK-OV-3 ovarian
A498 renal = test system: A498 renal
NCI-H226 lung = test system: NCI-H226 lung
TK-10 renal = test system: TK-10 renal
IGROV1 ovarian = test system: IGROV1 ovarian
SK-MEL-5 melanoma = test system: SK-MEL-5 melanoma
EKVX NSCLC = test system: EKVX NSCLC
HOP-92 NSCLC = test system: HOP-92 NSCLC
NCI-H522 lung = test system: NCI-H522 lung
HCT-15 colon = test system: HCT-15 colon
U251 CNS = test system: U251 CNS
MCF7 breast = test system: MCF7 breast
M14 melanoma = test system: M14 melanoma
CCRF-CEM leukemia = test system: CCRF-CEM leukemia
MDA-MB-231 breast = test system: MDA-MB-231 breast
SNB-19 CNS = test system: SNB-19 CNS
OVCAR-8 ovarian = test system: OVCAR-8 ovarian
NCI-H23 lung = test system: NCI-H23 lung
SF-295 CNS = test system: SF-295 CNS
NCI-H460 lung = test system: NCI-H460 lung
CAKI-1 renal = test system: CAKI-1 renal
HOP-62 NSCLC = test system: HOP-62 NSCLC
KM12 colon = test system: KM12 colon
LOX IMVI melanoma = test system: LOX IMVI melanoma
RXF 393 renal = test system: RXF 393 renal
OVCAR-5 ovarian = test system: OVCAR-5 ovarian
SN12C renal = test system: SN12C renal
UO-31 renal = test system: UO-31 renal
BT-549 breast = test system: BT-549 breast
786-0 renal = test system: 786-0 renal
UACC-257 melanoma = test system: UACC-257 melanoma
SF-268 CNS = test system: SF-268 CNS
SR leukemia = test system: SR leukemia
COLO 205 colon = test system: COLO 205 colon
HT29 colon = test system: HT29 colon
MALME-3M melanoma = test system: MALME-3M melanoma
HL-60(TB) leukemia = test system: HL-60(TB) leukemia
ACHN renal = test system: ACHN renal
SNB-75 CNS = test system: SNB-75 CNS
PC-3 prostate = test system: PC-3 prostate
K-562 leukemia = test system: K-562 leukemia
MDA-MB-435 = test system: MDA-MB-435
OVCAR-4 ovarian = test system: OVCAR-4 ovarian
A549 NSCLC = test system: A549 NSCLC
T-47D breast = test system: T-47D breast
MOLT-4 leukemia = test system: MOLT-4 leukemia
SK-MEL-28 melanoma = test system: SK-MEL-28 melanoma
OVCAR-3 ovarian = test system: OVCAR-3 ovarian
DU-145 prostate = test system: DU-145 prostate
HCC-2998 colon = test system: HCC-2998 colon
HCT-116 colon = test system: HCT-116 colon
UACC-62 melanoma = test system: UACC-62 melanoma
SK-MEL-2 melanoma = test system: SK-MEL-2 melanoma
HS 578T breast = test system: HS 578T breast
SF-539 CNS = test system: SF-539 CNS

## CC(=O)O[C@H]1CC[C@@]2(C)C(=CC[C@@H]3[C@@H]2CC[C@]2(C)c4nc(Cl)ccc4C[C@@H]32)C1
NCI/ADR-RES ovarian
  TGI: > 100 µM
MDA-N
  TGI: > 100 µM
SW-620 colon
  TGI: > 100 µM
SK-OV-3 ovarian
  TGI: > 100 µM
A498 renal
  TGI: > 100 µM
NCI-H226 lung
  TGI: > 100 µM
TK-10 renal
  TGI: > 100 µM
IGROV1 ovarian
  TGI: > 100 µM
SK-MEL-5 melanoma
  TGI: 96.6 µM
EKVX NSCLC
  TGI: > 100 µM
HOP-92 NSCLC
  TGI: > 100 µM
NCI-H522 lung
  TGI: > 100 µM
HCT-15 colon
  TGI: > 100 µM
U251 CNS
  TGI: > 100 µM
MCF7 breast
  TGI: 62.3 µM
M14 melanoma
  TGI: > 100 µM
CCRF-CEM leukemia
  TGI: 58.4 µM
MDA-MB-231 breast
  TGI: > 100 µM
SNB-19 CNS
  TGI: > 100 µM
OVCAR-8 ovarian
  TGI: > 100 µM
NCI-H23 lung
  TGI: 19.4 µM
SF-295 CNS
  TGI: 83.3 µM
NCI-H460 lung
  TGI: > 100 µM
CAKI-1 renal
  TGI: > 100 µM
HOP-62 NSCLC
  TGI: > 100 µM
KM12 colon
  TGI: > 100 µM
LOX IMVI melanoma
  TGI: > 100 µM
RXF 393 renal
  TGI: > 100 µM
OVCAR-5 ovarian
  TGI: > 100 µM
SN12C renal
  TGI: > 100 µM
UO-31 renal
  TGI: > 100 µM
BT-549 breast
  TGI: > 100 µM
786-0 renal
  TGI: > 100 µM
UACC-257 melanoma
  TGI: > 100 µM
SF-268 CNS
  TGI: > 100 µM
SR leukemia
  TGI: > 100 µM
COLO 205 colon
  TGI: > 100 µM
HT29 colon
  TGI: > 100 µM
MALME-3M melanoma
  TGI: > 100 µM
HL-60(TB) leukemia
  TGI: > 100 µM
ACHN renal
  TGI: > 100 µM
SNB-75 CNS
  TGI: 94 µM
PC-3 prostate
  TGI: > 100 µM
K-562 leukemia
  TGI: > 100 µM
MDA-MB-435
  TGI: > 100 µM
OVCAR-4 ovarian
  TGI: > 100 µM
A549 NSCLC
  TGI: > 100 µM
T-47D breast
  TGI: > 100 µM
MOLT-4 leukemia
  TGI: > 100 µM
SK-MEL-28 melanoma
  TGI: > 100 µM
OVCAR-3 ovarian
  TGI: 69.8 µM
DU-145 prostate
  TGI: > 100 µM
HCC-2998 colon
  TGI: > 100 µM
HCT-116 colon
  TGI: > 100 µM
UACC-62 melanoma
  TGI: 54.3 µM

## COc1cccc(C2c3cc4c(cc3OC3COC(=O)C32)OCO4)c1OC (stereo unspecified)
NCI/ADR-RES ovarian
  TGI: > 100 µM
MDA-N
  TGI: > 100 µM
SW-620 colon
  TGI: > 100 µM
SK-OV-3 ovarian
  TGI: > 100 µM
A498 renal
  TGI: > 100 µM
NCI-H226 lung
  TGI: > 100 µM
TK-10 renal
  TGI: > 100 µM
IGROV1 ovarian
  TGI: > 100 µM
SK-MEL-5 melanoma
  TGI: > 100 µM
EKVX NSCLC
  TGI: > 100 µM
HOP-92 NSCLC
  TGI: > 100 µM
HCT-15 colon
  TGI: > 100 µM
MCF7 breast
  TGI: > 100 µM
M14 melanoma
  TGI: > 100 µM
CCRF-CEM leukemia
  TGI: > 100 µM
MDA-MB-231 breast
  TGI: > 100 µM
SNB-19 CNS
  TGI: > 100 µM
OVCAR-8 ovarian
  TGI: > 100 µM
SF-295 CNS
  TGI: > 100 µM
NCI-H460 lung
  TGI: > 100 µM
CAKI-1 renal
  TGI: > 100 µM
HOP-62 NSCLC
  TGI: > 100 µM
KM12 colon
  TGI: > 100 µM
LOX IMVI melanoma
  TGI: > 100 µM
RXF 393 renal
  TGI: > 100 µM
OVCAR-5 ovarian
  TGI: > 100 µM
SN12C renal
  TGI: > 100 µM
SK-MEL-2 melanoma
  TGI: > 100 µM
UO-31 renal
  TGI: > 100 µM
BT-549 breast
  TGI: > 100 µM
786-0 renal
  TGI: > 100 µM
UACC-257 melanoma
  TGI: > 100 µM
SF-268 CNS
  TGI: > 100 µM
COLO 205 colon
  TGI: > 100 µM
HT29 colon
  TGI: > 100 µM
MALME-3M melanoma
  TGI: > 100 µM
HL-60(TB) leukemia
  TGI: > 100 µM
HS 578T breast
  TGI: > 100 µM
ACHN renal
  TGI: > 100 µM
SNB-75 CNS
  TGI: > 100 µM
PC-3 prostate
  TGI: > 100 µM
SF-539 CNS
  TGI: > 100 µM
OVCAR-4 ovarian
  TGI: > 100 µM
A549 NSCLC
  TGI: > 100 µM
MOLT-4 leukemia
  TGI: > 100 µM
SK-MEL-28 melanoma
  TGI: > 100 µM
OVCAR-3 ovarian
  TGI: > 100 µM
DU-145 prostate
  TGI: > 100 µM
HCC-2998 colon
  TGI: > 100 µM
HCT-116 colon
  TGI: > 100 µM
UACC-62 melanoma
  TGI: > 100 µM
